Columns and labels:
[1] = tested on: soybean (Gl); experiment: Test Example 6: crop plant selectivity by upland field soil treatment (soybean), phytotoxicity; type: in vivo; parameters: scale not given here; conditions: dose 6.3 g ai/10a, 21st day after application
Outline: (§1)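 Soybean and weeds sown in sand-filled pots and covered with soil, then treated by soil application. Plants grown in a greenhouse, with herbicidal effect and crop phytotoxicity scored on day 21 after application against a fixed rating scale.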

[2] = tested on: green foxtail (Se); experiment: Test Example 6: crop plant selectivity by upland field soil treatment (soybean), herbicidal effects; type: in vivo; parameters: scale not given here; conditions: dose 6.3 g ai/10a, 21st day after application
Outline: as §1

[3] = tested on: China jute (Ab); experiment: as above; type: in vivo; parameters: scale not given here; conditions: dose 6.3 g ai/10a, 21st day after application
Outline: as §1

[4] = tested on: common lambsquarters (Ch); experiment: as above; type: in vivo; parameters: scale not given here; conditions: dose 6.3 g ai/10a, 21st day after application
Outline: as §1

[5] = tested on: slender amaranth (Am); experiment: as above; type: in vivo; parameters: scale not given here; conditions: dose 6.3 g ai/10a, 21st day after application
Outline: as §1

[6] = tested on: pale smartweed (Po); experiment: as above; type: in vivo; parameters: scale not given here; conditions: dose 6.3 g ai/10a, 21st day after application
Outline: as §1

[7] = tested on: China jute (Ab); experiment: Test Example 9: crop plant selectivity by upland field foliage treatment (wheat), herbicidal effects; type: in vivo; parameters: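 grade of growth control; 5 = at least 90%; 4 = 70 to 90%; 3 = 50 to 70%; 2 = 30 to 50%; 1 = 10 to 30%; 0 = under 10%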; conditions: dose 1.6 g ai/10a, 14th day after treatment
Outline: (§2)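 Wheat and weeds sown in sand-filled pots, grown 2 weeks in a greenhouse, then foliage-treated. Herbicidal effect and crop phytotoxicity were scored 14 days after treatment against a rating scale.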

[8] = tested on: common lambsquarters (Ch); experiment: as above; type: in vivo; parameters: scale not given here; conditions: dose 1.6 g ai/10a, 14th day after treatment
Outline: as §2

[9] = tested on: slender amaranth (Am); experiment: as above; type: in vivo; parameters: scale not given here; conditions: dose 1.6 g ai/10a, 14th day after treatment
Outline: as §2

[10] = tested on: pale smartweed (Po); experiment: as above; type: in vivo; parameters: scale not given here; conditions: dose 1.6 g ai/10a, 14th day after treatment
Outline: as §2

[11] = tested on: common lambsquarters (Ch); experiment: Test Example 2: herbicidal effects by upland field soil treatment; type: in vivo; conditions: 100 g of the active ingredient per 10 ares, evaluated on the 21st day after application;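 note: grade of growth control; 5 = at least 90%; 4 = 70 to 90%; 3 = 50 to 70%; 2 = 30 to 50%; 1 = 10 to 30%; 0 = under 10%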
Source text: (§3) (Test on Herbicidal Effects by Upland Field Soil Treatment)

[12] = tested on: rice flatsedge (Ci); experiment: as above; type: in vivo; conditions: 100 g of the active ingredient per 10 ares, evaluated on the 21st day after application
Source text: as §3

[13] = tested on: slender amaranth (Am); experiment: as above; type: in vivo; conditions: 100 g of the active ingredient per 10 ares, evaluated on the 21st day after application
Source text: as §3

[14] = tested on: Digitaria ciliaris (Di); experiment: as above; type: in vivo; conditions: 100 g of the active ingredient per 10 ares, evaluated on the 21st day after application;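 note: grade of growth control; 5 = at least 90%; 4 = 70 to 90%; 3 = 50 to 70%; 2 = 30 to 50%; 1 = 10 to 30%; 0 = under 10%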
Source text: as §3

[15] = tested on: pale smartweed (Po); experiment: as above; type: in vivo; conditions: 100 g of the active ingredient per 10 ares, evaluated on the 21st day after application
Source text: as §3

[16] = tested on: barnyardgrass (Ec); experiment: as above; type: in vivo; conditions: 100 g of the active ingredient per 10 ares, evaluated on the 21st day after application
Source text: as §3

[17] = tested on: corn (Ze); experiment: Test Example 11: crop plant selectivity by upland field foliage treatment (corn), phytotoxicity; conditions: upland field foliage treatment, dose 1.6 g ai/10a, 14th day after treatment
Outline: (§4)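 Corn with pale smartweed, slender amaranth, common lambsquarters and China jute sown in sand-filled pots and grown 2 weeks in a greenhouse before foliage treatment. Herbicidal effect and crop phytotoxicity scored on day 14 after treatment against a rating standard.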

[18] = tested on: monochoria (Mo); experiment: Test Example 1: herbicidal effects by paddy field soil treatment; type: in vivo; conditions: 100 g of the active ingredient per 10 ares, 21st day after the application, index 0-5 of Table 47;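 note: grade of growth control; 5 = at least 90%; 4 = 70 to 90%; 3 = 50 to 70%; 2 = 30 to 50%; 1 = 10 to 30%; 0 = under 10%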
Outline: (§5)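 Scoring of herbicidal effect came 21 days after application of 100 g active ingredient per 10 ares to flooded (3 cm) paddy-soil pots sown with barnyardgrass, monochoria and bulrush, kept in a greenhouse.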

[19] = tested on: barnyardgrass (Ec); experiment: as above; type: in vivo; conditions: 100 g of the active ingredient per 10 ares, 21st day after the application, index 0-5 of Table 47
Outline: as §5

[20] = tested on: bulrush (Sc); experiment: as above; type: in vivo; conditions: 100 g of the active ingredient per 10 ares, 21st day after the application, index 0-5 of Table 47;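 note: grade of growth control; 5 = at least 90%; 4 = 70 to 90%; 3 = 50 to 70%; 2 = 30 to 50%; 1 = 10 to 30%; 0 = under 10%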
Outline: as §5

[21] = tested on: green foxtail (Se); experiment: Test Example 4: crop plant selectivity by upland field soil treatment (cotton), herbicidal effects; type: in vivo; parameters: scale not given here; conditions: dose 6.3 g ai/10 a, evaluated 21st day after application
Outline: (§6)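 Upland soil-treatment selectivity test: scoring on day 21 post-application in a greenhouse, rating crop phytotoxicity on cotton and herbicidal effect on co-sown weeds. Seeds were sown in sand-filled pots and covered with soil before treatment.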

[22] = tested on: China jute (Ab); experiment: as above; type: in vivo; parameters: scale not given here; conditions: dose 6.3 g ai/10 a, evaluated 21st day after application
Outline: as §6

[23] = tested on: common lambsquarters (Ch); experiment: as above; type: in vivo; parameters: scale not given here; conditions: dose 6.3 g ai/10 a, evaluated 21st day after application
Outline: as §6

[24] = tested on: slender amaranth (Am); experiment: as above; type: in vivo; parameters: scale not given here; conditions: dose 6.3 g ai/10 a, evaluated 21st day after application
Outline: as §6

[25] = tested on: pale smartweed (Po); experiment: as above; type: in vivo; parameters: scale not given here; conditions: dose 6.3 g ai/10 a, evaluated 21st day after application
Outline: as §6

[26] = tested on: cotton (Go); experiment: Test Example 4: crop plant selectivity by upland field soil treatment (cotton), phytotoxicity; type: in vivo; parameters: scale not given here; conditions: dose 6.3 g ai/10 a, evaluated 21st day after application
Outline: as §6

[27] = tested on: wheat (Tr); experiment: Test Example 9: crop plant selectivity by upland field foliage treatment (wheat), phytotoxicity; conditions: dose 1.6 g ai/10a, 14th day after treatment
Outline: as §2

[28] = tested on: China jute (Ab); experiment: Test Example 11: crop plant selectivity by upland field foliage treatment (corn), herbicidal effects; type: in vivo; parameters: scale not given here; conditions: upland field foliage treatment (corn test), dose 1.6 g ai/10a, 14th day after treatment
Outline: as §4

[29] = tested on: common lambsquarters (Ch); experiment: as above; type: in vivo; parameters: scale not given here; conditions: upland field foliage treatment (corn test), dose 1.6 g ai/10a, 14th day after treatment
Outline: as §4

[30] = tested on: slender amaranth (Am); experiment: as above; type: in vivo; parameters: scale not given here; conditions: upland field foliage treatment (corn test), dose 1.6 g ai/10a, 14th day after treatment
Outline: as §4

[31] = tested on: pale smartweed (Po); experiment: as above; type: in vivo; parameters: scale not given here; conditions: upland field foliage treatment (corn test), dose 1.6 g ai/10a, 14th day after treatment
Outline: as §4

[32] = tested on: common lambsquarters (Ch); experiment: Test Example 3: herbicidal effects by upland field foliage treatment; type: in vivo; parameters: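 grade of growth control; 5 = at least 90%; 4 = 70 to 90%; 3 = 50 to 70%; 2 = 30 to 50%; 1 = 10 to 30%; 0 = under 10%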
Outline: (§7)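 Readout: visual herbicidal rating per defined standards, 14th day after treatment. Plants sown in sand (pot area 120 cm^2), soil-covered, greenhouse-cultured for 2 weeks prior to foliage application, then greenhouse-grown until scoring.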

[33] = tested on: Diaitaria ciliaris (Di); experiment: as above; type: in vivo; parameters: scale not given here
Outline: as §7

[34] = tested on: rice flatsedge (Ci); experiment: as above; type: in vivo; parameters: scale not given here
Outline: as §7

[35] = tested on: slender amaranth (Am); experiment: as above; type: in vivo; parameters: scale not given here
Outline: as §7

[36] = tested on: pale smartweed (Po); experiment: as above; type: in vivo; parameters: scale not given here
Outline: as §7

[37] = tested on: barnyardgrass (Ec); experiment: as above; type: in vivo; parameters: scale not given here
Outline: as §7

[38] = 100 g of the active ingredient per 10 ares, evaluated on the 14th day after treatment
[39] = 100 g active ingredient per 10 ares, evaluated 14th day after treatment

SMILES: COCCOc1cc(-c2ccc(C(F)(F)F)n(C)c2=O)c(F)cc1Cl [1-170]
- Phytotoxicity Gl [1]: 2
- Herbicidal effects Se [2]: 5
- Herbicidal effects Ab [3]: 5
- Herbicidal effects Ch [4]: 5
- Herbicidal effects Am [5]: 5
- Herbicidal effects Po [6]: 5
- Herbicidal effects Ab [7]: 5
- Herbicidal effects Ch [8]: 5
- Herbicidal effects Am [9]: 5
- Herbicidal effects Po [10]: 5
- Herbicidal effects Ch [11]: 5
- Herbicidal effects Ci [12]: 5
- Herbicidal effects Am [13]: 5
- Herbicidal effects Di [14]: 5
- Herbicidal effects Po [15]: 5
- Herbicidal effects Ec [16]: 5
- Phytotoxicity Ze [17]: 0
- Herbicidal effects Mo [18]: 5
- Herbicidal effects Ec [19]: 5
- Herbicidal effects Sc [20]: 5
- Herbicidal effects Se [21]: 5
- Herbicidal effects Ab [22]: 5
- Herbicidal effects Ch [23]: 5
- Herbicidal effects Am [24]: 5
- Herbicidal effects Po [25]: 5
- Phytotoxicity Go [26]: 1
- Phytotoxicity Tr [27]: 1
- Herbicidal effects Ab [28]: 5
- Herbicidal effects Ch [29]: 5
- Herbicidal effects Am [30]: 5
- Herbicidal effects Po [31]: 5
- Herbicidal effects Ch [32, 38]: 5
- Herbicidal effects Di [33, 38]: 5
- Herbicidal effects Ci [34, 38]: 5
- Herbicidal effects Am [35, 38]: 5
- Herbicidal effects Po [36, 38]: 5
- Herbicidal effects Ec [37, 38]: 5

SMILES: C=CCn1c(=O)sc2cc(F)c(-c3ccc(C(F)(F)F)n(C)c3=O)cc21 [Compound 3-5]
- Herbicidal effects Ab [7]: 5
- Herbicidal effects Ch [8]: 5
- Herbicidal effects Am [9]: 5
- Herbicidal effects Po [10]: 5
- Herbicidal effects Ch [11]: 5
- Herbicidal effects Ci [12]: 5
- Herbicidal effects Am [13]: 5
- Herbicidal effects Di [14]: 5
- Herbicidal effects Po [15]: 5
- Herbicidal effects Ec [16]: 5
- Phytotoxicity Ze [17]: 2
- Herbicidal effects Mo [18]: 5
- Herbicidal effects Ec [19]: 5
- Herbicidal effects Sc [20]: 5
- Phytotoxicity Tr [27]: 1
- Herbicidal effects Ab [28]: 5
- Herbicidal effects Ch [29]: 5
- Herbicidal effects Am [30]: 5
- Herbicidal effects Po [31]: 5
- Herbicidal effects Ch [32, 39]: 5
- Herbicidal effects Di [33, 39]: 5
- Herbicidal effects Ci [34, 39]: 5
- Herbicidal effects Am [35, 39]: 5
- Herbicidal effects Po [36, 39]: 5
- Herbicidal effects Ec [37, 39]: 5

— patent US6472348B1, “Pyridone derivatives and herbicides” (Kumiai Chemical Industry Co., Ltd., priority 1996, dated 2002)
